Assay results as given in US8808702B2, “Sulfide, sulfoxide and sulfone chalcone analogues, derivatives thereof and therapeutic uses thereof” (Temple University-of the Commonwealth System of Higher …, priority 2006, dated 2014).
Where two headings read alike, the source gives them in different places.

Assays:
[1] = tested on: K562 (chronic myelogenous leukaemia); assay: Effect of compounds on tumor cell lines (assay of Latham et al.), K562; format: cell-based; settings: K562 cells, read-out: K 562 potency (IC50)
Method: (§1) The effect of the compounds of the invention on tumor cells was determined by the assay described by Latham et al., Oncogene 12:827-837 (1996). Tumor cells K562 (chronic myelogenous leukaemia) or DU145 (prostate cancer) were plated in 12-well dishes at a cell density of 2.5×10^4 cells well. The plated cells were treated 24 hours later with a compound of the invention dissolved in DMSO at multiple concentrations ranging from 1 μM to 100 μM. The plates were examined 96 hours later under an inverted microscope, Olympus CK-2 using an 10× objective, and compound activity was noted by physical observation. When necessary, the total number of viable cells was determined by trypsinizing the wells and counting the number of viable cells, as determined by trypan blue exclusion, using a hemacytometer.
(§2) The representative compounds listed in Tables 1-5 are shown by way of illustration, and are not intended to limit the scope of the invention. The compounds are prepared and tested by methods based on those described above, except that the compound of Table 5 was dissolved in DMSO at multiple concentrations ranging from 0.1 μM to 100 μM

DU145 (prostate cancer) = assay: Effect of compounds on tumor cell lines (assay of Latham et al.), DU145; format: cell-based; settings: DU145 cells, read-out: DU 145 potency (IC50)
Method: as §1, §2

[2] = Table 1, examined 96 hours after treatment, 1 μM to 100 μM in DMSO
[3] = 96 hours after treatment, 1 μM to 100 μM
[4] = Table 4, examined 96 hours after treatment, 1 μM to 100 μM in DMSO

Row | IC50 [1, 3] [µM] | IC50 (DU145 (prostate cancer); [3]) [µM] | SMILES | IC50 [1, 2] [µM] | IC50 (DU145 (prostate cancer); [2]) [µM] | also measured
1 | 10 to 25 | 10 to 25 | O=C(C(=Cc1ccc(O)c([N+](=O)[O-])c1)SCc1ccc(Cl)cc1)c1ccc(Cl)cc1 [Example 220] |  |  | 
2 | 50 to 100 | 50 to 100 | Cc1ccsc1C=C(SCc1ccc(Cl)cc1)C(=O)c1ccc(Cl)cc1 [Example 206] |  |  | 
3 | 1 to 10 | 10 to 25 | O=C(C(=Cc1ccc(Cl)cc1)SCc1ccc(Cl)cc1)c1ccc(Cl)cc1 [Example 324] |  |  | 
4 | 1 to 10 | 25 to 50 | CN(C)c1ccc(C=C(SCc2ccc(F)cc2)C(=O)c2ccc(Br)cc2)cc1 [Example 249] |  |  | 
5 | 50 to 100 | > 100 | Cc1ccc(C=C(SCc2ccc(Cl)cc2)C(=O)c2ccc(Br)cc2)s1 [Example 229] |  |  | 
6 | ≤ 1 | 1 to 10 | O=C(O)c1ccc(C(=O)/C(=C\c2ccc(F)c([N+](=O)[O-])c2)SCc2ccc(C(F)(F)F)cc2)cc1 [Example 351] |  |  | 
7 | 50 to 100 | > 100 | O=C(O)c1ccc(C(=O)C(=Cc2ccc(O)c([N+](=O)[O-])c2)SCc2ccc(F)cc2)cc1 [Example 262] |  |  | 
8 | ≤ 1 | 1 to 10 | CN1CCN(CCNc2ccc(C=C(SCc3ccc(F)cc3)C(=O)c3ccc(F)cc3)cc2[N+](=O)[O-])CC1 [Example 329] |  |  | 
9 | 10 to 25 | 10 to 25 | O=C(/C(=C\c1cccc(Cl)c1Cl)SCc1ccc(Cl)cc1)c1ccc(Br)cc1 [Example 190] |  |  | 
10 | 10 to 25 | 10 to 25 | Cc1cc(C)cc(C=C(SCc2ccc(Cl)cc2)C(=O)c2ccc(Cl)cc2)c1 [Example 202] |  |  | 
11 | 25 to 50 | 25 to 50 | Cc1ccc(C=C(SCc2ccc(Cl)cc2)C(=O)c2ccc([N+](=O)[O-])cc2)s1 [Example 231] |  |  | 
12 | ≤ 1 | 1 to 10 | O=C(O)c1ccc(C(=O)C(=Cc2ccc(Br)c([N+](=O)[O-])c2)SCc2ccc(Cl)cc2)cc1 [Example 213] |  |  | 
13 | 10 to 25 | 25 to 50 | CN(C)c1ccc(C=C(SCc2ccc(F)cc2)C(=O)c2ccc(C(=O)O)cc2)cc1 [Example 250] |  |  | 
14 | 1 to 10 | 25 to 50 | O=C(C(=Cc1ccc(Br)cc1)SCc1ccc(F)cc1)c1ccc(Br)cc1 [Example 253] |  |  | 
15 | 50 to 100 | 50 to 100 | Cc1ccc(C=C(SCc2ccc(Cl)cc2)C(=O)c2ccc(Cl)cc2)s1 [Example 230] |  |  | 
16 | ≤ 1 | 1 to 10 | O=C(O)c1ccc(C(=O)C(=Cc2ccc(Cl)c([N+](=O)[O-])c2)SCc2ccc(F)cc2)cc1 [Example 255] |  |  | 
17 | ≤ 1 | 1 to 10 | O=C(O)c1ccc(C(=O)C(=Cc2ccc(F)c([N+](=O)[O-])c2)SCc2ccc(Cl)cc2Cl)cc1 [Example 301] |  |  | 
18 | 1 to 10 | 25 to 50 | CSc1ccc(C=C(SCc2ccc(Cl)cc2)C(=O)c2ccc(Cl)cc2)cc1 [Example 224] |  |  | 
19 | 50 to 100 | > 100 | COc1cc(OC)c(C=C(SCc2ccc(Cl)cc2)C(=O)c2ccc([N+](=O)[O-])cc2)c(OC)c1 [Example 194] |  |  | 
20 | 1 to 10 | 10 to 25 | O=C(C(=Cc1ccc(O)cc1)SCc1ccc(Cl)cc1)c1ccc(Br)cc1 [Example 221] |  |  | 
21 | 1 to 10 | 1 to 10 | O=C(C(=Cc1cccnc1)SCc1ccc(Cl)cc1)c1ccc(Cl)cc1 [Example 322] |  |  | 
22 | 10 to 25 | 1 to 10 | O=C(C(=Cc1ccc(OCc2ccccc2)cc1)SCc1ccc(Cl)cc1)c1ccc(Cl)cc1 [Example 212] |  |  | 
23 | 25 to 50 | 25 to 50 | Cc1ccsc1C=C(SCc1ccc(Cl)cc1)C(=O)c1ccc(Br)cc1 [Example 205] |  |  | 

The remaining lines, values behind:

Row | SMILES | IC50 [1, 3] [µM] | IC50 (DU145 (prostate cancer); [3]) [µM] | IC50 [1, 2] [µM] | IC50 (DU145 (prostate cancer); [2]) [µM] | also measured
24 | O=C(C(=Cc1ccc(O)c([N+](=O)[O-])c1)Sc1ccccc1Br)c1ccc(Br)cc1 [Example 10] |  |  | 10 to 25 | 1 to 10 | 
25 | O=C(C(=Cc1ccc(F)cc1)Sc1ccc(Br)cc1)c1ccc(Br)cc1 [Example 40] |  |  | 1 to 10 | 10 to 25 | 
26 | Cc1ccsc1C=C(SCc1ccc(Cl)cc1Cl)C(=O)c1ccc(Cl)cc1 [Example 119] | 50 to 100 | 10 to 25 |  |  | 
27 | CCOc1ccc(C=C(SCc2ccc(Cl)c(Cl)c2)C(=O)c2ccc(Cl)cc2)cc1OC [Example 143] | 1 to 10 | 25 to 50 |  |  | 
28 | Cc1ccc(SC(=Cc2c[nH]c3ccc(Br)cc23)C(=O)c2ccc(Br)cc2)cc1 [Example 105] |  |  | 10 to 25 | 1 to 10 | 
29 | O=C(C(=Cc1ccc(O)cc1O)Sc1ccccc1Br)c1ccc(Br)cc1 [Example 6] |  |  | 50 to 100 | 50 to 100 | 
30 | Cc1ccc(SC(=Cc2ccc(Oc3ccccc3)cc2)C(=O)c2ccc(Cl)cc2)cc1 [Example 104] |  |  | 10 to 25 | 10 to 25 | 
31 | Cc1ccc(SC(=Cc2ccc(N(C)C)cc2)C(=O)c2ccc(Br)cc2)cc1 [Example 101] |  |  | 50 to 100 | > 100 | 
32 | O=C(/C(=C\c1ccc(O)c([N+](=O)[O-])c1)SCc1ccc(Br)cc1)c1cc(Cl)ccc1O [Example 187] | 10 to 25 | 25 to 50 |  |  | 
33 | COc1ccc(SC(=Cc2ccccc2OCc2ccccc2)C(=O)c2ccc(Cl)cc2)cc1 [Example 62] |  |  | 1 to 10 | 1 to 10 | 
34 | O=C(C(=Cc1ccc(O)c(Br)c1)Sc1ccc(Br)cc1)c1c(F)c(F)c(F)c(F)c1F [Example 27] |  |  | 1 to 10 | 1 to 10 | 
35 | O=C(/C(=C\c1ccc(O)c([N+](=O)[O-])c1)SCc1ccc(Br)cc1)c1ccc(N2CCCC2)cc1 [Example 185] | > 100 | > 100 |  |  | 
36 | O=C(O)c1ccc(C(=O)/C(=C\c2ccc(Cl)c([N+](=O)[O-])c2)S(=O)(=O)Cc2ccc(Br)cc2)cc1 [Example 372] |  |  |  |  | IC50 ([1]; Homo sapiens, Table 4, examined 96 hours after treatment, 1 μM to 100 μM in DMSO): 25 to 50 µM; IC50 (DU145 (prostate cancer); Homo sapiens, DU-145, Table 4, examined 96 hours after treatment, 1 μM to 100 μM in DMSO): 25 to 50 µM
37 | O=C(C(=Cc1ccc([N+](=O)[O-])c(O)c1)Sc1ccc(Br)cc1)c1c(F)c(F)c(F)c(F)c1F [Example 30] |  |  | 1 to 10 | 1 to 10 | 
38 | COc1cc(C=C(Sc2ccc(Br)cc2)C(=O)c2ccc(Br)cc2)ccc1F [Example 39] |  |  | 1 to 10 | 1 to 10 | 
39 | O=C(C(=Cc1ccc(Br)c([N+](=O)[O-])c1)Sc1ccc(Br)cc1)c1ccc(Br)cc1 [Example 34] |  |  | 1 to 10 | 1 to 10 | 
40 | Cc1ccc(SC(=Cc2ccc(-c3ccccc3)cc2)C(=O)c2ccc(Cl)cc2)cc1 [Example 111] |  |  | 25 to 50 | 50 to 100 | 

Row | SMILES | IC50 [1, 3] [µM] | IC50 (DU145 (prostate cancer); [3]) [µM] | IC50 [1, 2] [µM] | IC50 (DU145 (prostate cancer); [2]) [µM] | also measured
41 | CSc1ccc(C=C(Sc2ccc(Br)cc2)C(=O)c2ccc(Cl)cc2)cc1 [Example 46] |  |  | 1 to 10 | 1 to 10 | 
42 | CCN(CC)CCNC(=O)c1c(C)[nH]c(/C=C(/SCc2ccc(Br)cc2)C(=O)c2ccc(C(=O)O)cc2)c1C [Example 163] | 50 to 100 | 50 to 100 |  |  | 
43 | COc1ccc(C=C(Sc2ccc(Br)cc2)C(=O)c2ccc(Br)cc2)cc1 [Example 47] |  |  | 1 to 10 | 25 to 50 | 
44 | Cc1ccc(SC(=Cc2ccc(Cl)cc2)C(=O)c2ccc(Br)cc2)cc1 [Example 90] |  |  | 1 to 10 | 10 to 25 | 
45 | Cc1ccc(SC(=Cc2ccc(F)cc2OC(F)(F)F)C(=O)c2ccc(Br)cc2)cc1 [Example 94] |  |  | 25 to 50 | 25 to 50 | 
46 | COc1ccc(OC)c(C=C(SCc2ccc(Cl)c(Cl)c2)C(=O)c2ccc(Cl)cc2)c1 [Example 138] | 10 to 25 | 10 to 25 |  |  | 
47 | O=C(O)c1ccc(C(=O)/C(=C\c2ccc(F)c([N+](=O)[O-])c2)SCc2ccc(Br)cc2)cc1 [Example 172] | 1 to 10 | 1 to 10 |  |  | 
48 | Cc1ccc(SC(=Cc2ccc(O)c([N+](=O)[O-])c2)C(=O)c2ccc(Cl)cc2)cc1 [Example 96] |  |  | 25 to 50 | 10 to 25 | 
49 | COc1cc(/C=C(/SCc2ccc(Br)cc2)C(=O)c2ccc(Br)cc2)cc([N+](=O)[O-])c1O [Example 174] | 25 to 50 | 25 to 50 |  |  | 
50 | O=C(C(=Cc1c(O)cc(O)cc1O)Sc1ccccc1Br)c1ccc(Br)cc1 [Example 4] |  |  | > 100 | > 100 | 
51 | Cc1ccc(SC(=Cc2cc(C)cc(C)c2)C(=O)c2ccc(Cl)cc2)cc1 [Example 78] |  |  | 25 to 50 | 50 to 100 | 
52 | CN(C)c1ccc(/C=C(/SCc2ccc(Br)cc2)C(=O)c2ccc(C(=O)O)cc2)cc1 [Example 164] | 25 to 50 | 50 to 100 |  |  | 
53 | Cc1ccc(SC(=Cc2ccc(F)cc2F)C(=O)c2ccc(Br)cc2)cc1 [Example 73] |  |  | > 100 | > 100 | 
54 | Cc1ccc(SC(=Cc2c(O)cc(O)cc2O)C(=O)c2ccc(Br)cc2)cc1 [Example 67] |  |  | 50 to 100 | > 100 | 
55 | O=C(/C(=C\c1ccc(O)c([N+](=O)[O-])c1)S(=O)(=O)Cc1ccc(Cl)cc1)c1ccc(Cl)cc1 [Example 393] |  |  |  |  | IC50 [1, 4]: 25 to 50 µM; IC50 (DU145 (prostate cancer); [4]): 25 to 50 µM
56 | O=C(C(=Cc1c(O)cc(O)cc1O)SCc1ccc(Cl)c(Cl)c1)c1ccc(Cl)cc1 [Example 136] | 25 to 50 | 25 to 50 |  |  | 
